According to patent publication US20200216441A1, “PESTICIDALLY ACTIVE HETEROCYCLIC DERIVATIVES WITH SULFUR CONTAINING SUBSTITUENTS” (SYNGENTA PARTICIPATIONS AG, priority 2017, published 2020):

Tests used:
[1] = tested on: Euschistus heros (Neotropical Brown Stink Bug); assay: whole plant or invertebrate; type: in vivo; details: 120 h, application rate of 200 ppm, N2 nymphs on sprayed soybean leaves, 5 days after infestation, read-out: effect in at least one of the two categories (mortality or growth inhibition)
[2] = tested on: Diabrotica Balteata (Corn Root Worm); assay: Diabrotica balteata (Corn Root Worm); details: in Zea mays, 96 h, read-out: effect in at least one of the two categories (mortality or growth inhibition)
[3] = tested on: Bemisia tabaci (Cotton White Fly); details: in Gossypium hirsutum, foliar, 144 h
[4] = tested on: Myzus persicae (Green Peach Aphid); assay: whole plant or invertebrate; details: foliar, 144 h
[5] = tested on: Myzus persicae (Green Peach Aphid); assay: whole plant or invertebrate; type: in vivo; details: 144 h, test rate of 24 ppm, systemic, roots of infested pea seedlings in test solution, 6 days
[6] = tested on: Spodoptera littoralis (Egyptian Cotton Leaf Worm); assay: whole plant or invertebrate; details: in Gossypium barbadense, foliar, 72 h, read-out: control (mortality, anti-feeding effect, growth inhibition)
[7] = tested on: Frankliniella occidentalis (Western Flower Thrips); details: foliar, 168 h
[8] = tested on: Tetranychus urticae (Two-Spotted Spider Mite); details: foliar, 192 h
[9] = tested on: Plutella xylostella (Diamond Back Moth); assay: whole plant or invertebrate; type: in vivo; details: 120 h, application rate of 200 ppm, L2 larvae on treated artificial diet, 5 days after infestation, read-out: effect in at least one of the two categories (mortality or growth inhibition)
[10] = tested on: Spodoptera littoralis (Egyptian Cotton Leaf Worm); assay: Spodoptera littoralis (Egyptian Cotton Leaf Worm), uptake by lettuce roots from agar; type: in vivo; details: 144 h, test rate of 12.5 ppm, compound in agar absorbed by lettuce roots, 6 days after infestation, read-out: effect in at least one of the three categories (mortality, anti-feeding, or growth inhibition)
Description: Example B10: Spodoptera littoralis (Egyptian Cotton Leaf Worm)
Test compounds were applied by pipette from 10′000 ppm DMSO stock solutions into 24-well plates and mixed with agar. Lettuce seeds were placed onto the agar and the multi well plate was closed by another plate which contained also agar. After 7 days the compound was absorbed by the roots and the lettuce grew into the lid plate. The lettuce leaves were then cut off into the lid plate. Spodoptera eggs were pipetted through a plastic stencil onto a humid gel blotting paper and the lid plate was closed with it.

[11] = tested on: Myzus persicae (Green Peach Aphid); assay: Myzus persicae (Green Peach Aphid). Intrinsic Activity; details: 120 h

melting point [°C]	Structure (SMILES)	percent effect (mortality or growth inhibition) at 200 ppm [1] [%]	mortality at 200 ppm [2] [%]	mortality at 200 ppm [3] [%]	mortality at 200 ppm [4] [%]	mortality at 24 ppm [5] [%]	mortality at 200 ppm [6] [%]	mortality at 200 ppm [7] [%]	mortality at 200 ppm [8] [%]	percent effect (mortality or growth inhibition) at 200 ppm [9] [%]	percent effect (mortality, anti-feeding or growth inhibition) at 12.5 ppm [10] [%]	mortality at 12 ppm [11] [%]
142 to 144	CCS(=O)(=O)c1cc(OC(C)(F)F)ccc1-c1nc2cc(C(F)(F)F)ncc2n1C											
204 to 206	CCS(=O)(=O)c1cc(OC(C#N)SC)cnc1-c1nc2cc(C(F)(F)F)ncc2n1C (stereo not drawn)											
94 to 96	CCS(=O)(=O)c1cc(OC(SC)C(=O)OC)cnc1-c1nc2cc(C(F)(F)F)ncc2n1C (stereo not drawn)											
138 to 140	CCS(=O)(=O)c1cc(OC(C)(C)C(C)=O)cnc1-c1nc2cc(C(F)(F)F)ncc2n1C											
	CCS(=O)(=O)c1cc(OCSC)cnc1-c1nc2cc(C(F)(F)F)ncc2n1C [Compound P10, 2-[3-ethylsulfonyl-5-(methylsulfanylmethoxy)-2-pyridyl]-3-methyl-6-(trifluoromethyl)imidazo[4,5-c]pyridine]	≥ 80	≥ 80	≥ 80	≥ 80	≥ 80	≥ 80	≥ 80				
	CCS(=O)(=O)c1cc(OC(C)(C)C#N)cnc1-c1nc2cc(C(F)(F)F)ncc2n1C [Compound P18, 2-[[5-ethylsulfonyl-6-[3-methyl-6-(trifluoromethyl)imidazo[4,5-c]pyridin-2-yl]-3-pyridyl]oxy]-2-methyl-propanenitrile]	≥ 80	≥ 80	≥ 80	≥ 80	≥ 80	≥ 80	≥ 80	≥ 80	≥ 80	≥ 80	
	CCSc1cc(OC(C)(C)C#N)cnc1-c1nc2cc(C(F)(F)F)ncc2n1C [Compound P19, 2-[[5-ethylsulfanyl-6-[3-methyl-6-(trifluoromethyl)imidazo[4,5-c]pyridin-2-yl]-3-pyridyl]oxy]-2-methyl-propanenitrile]	≥ 80	≥ 80	≥ 80	≥ 80		≥ 80		≥ 80	≥ 80		≥ 80
	CCS(=O)(=O)c1cc(OCC2CC2)cnc1-c1nc2cc(C(F)(F)F)ncc2n1C [Compound P24, 2-[5-(cyclopropylmethoxy)-3-ethylsulfonyl-2-pyridyl]-3-methyl-6-(trifluoromethyl)imidazo[4,5-c]pyridine]	≥ 80	≥ 80		≥ 80	≥ 80	≥ 80			≥ 80	≥ 80	
	CCS(=O)(=O)c1cc(OC(C)C)cnc1-c1nc2cc(C(F)(F)F)ncc2n1C [Compound P28, 2-(3-ethylsulfonyl-5-isopropoxy-2-pyridyl)-3-methyl-6-(trifluoromethyl)imidazo[4,5-c]pyridine]	≥ 80	≥ 80	≥ 80	≥ 80	≥ 80	≥ 80			≥ 80	≥ 80	
	CCS(=O)(=O)c1cc(OCC(C)(F)F)cnc1-c1nc2cc(C(F)(F)F)ncc2n1C [Compound P41, 2-[5-(2,2-difluoropropoxy)-3-ethylsulfonyl-2-pyridyl]-3-methyl-6-(trifluoromethyl)imidazo[4,5-c]pyridine]	≥ 80	≥ 80	≥ 80	≥ 80	≥ 80	≥ 80	≥ 80		≥ 80		
	CCS(=O)(=O)c1cc(OC(CF)CF)cnc1-c1nc2cc(C(F)(F)F)ncc2n1C [Compound P53, 2-[3-ethylsulfonyl-5-[2-fluoro-1-(fluoromethyl)ethoxy]-2-pyridyl]-3-methyl-6-(trifluoromethyl)imidazo[4,5-c]pyridine]	≥ 80	≥ 80	≥ 80	≥ 80	≥ 80	≥ 80	≥ 80	≥ 80	≥ 80		
	CCS(=O)(=O)c1cc(OC(C)C)cnc1-c1nc2cc([S+]([O-])C(F)(F)F)ncc2n1C (stereo not drawn) [Compound P60, 2-(3-ethylsulfonyl-5-isopropoxy-2-pyridyl)-3-methyl-6-(trifluoromethylsulfinyl)imidazo[4,5-c]pyridine]	≥ 80		≥ 80	≥ 80	≥ 80	≥ 80	≥ 80	≥ 80	≥ 80		
	CCS(=O)(=O)c1cc(OC(C)(F)F)cnc1-c1nc2cc(C(F)(F)F)ncc2n1C [Compound P78, 2-[5-(1,1-difluoroethoxy)-3-ethylsulfonyl-2-pyridyl]-3-methyl-6-(trifluoromethyl)imidazo[4,5-c]pyridine]	≥ 80	≥ 80	≥ 80	≥ 80	≥ 80	≥ 80	≥ 80		≥ 80		
	CCS(=O)(=O)c1cc(ON=C(C)C)cnc1-c1nc2cc(C(F)(F)F)ncc2n1C [Compound P97, N-[[5-ethylsulfonyl-6-[3-methyl-6-(trifluoromethyl)imidazo[4,5-c]pyridin-2-yl]-3-pyridyl]oxy]propan-2-imine]	≥ 80	≥ 80	≥ 80	≥ 80		≥ 80			≥ 80	≥ 80	
	CCS(=O)(=O)c1cc(OC(F)(F)Br)cnc1-c1nc2cc(C(F)(F)F)ncc2n1C [Compound P99, 2-[5-[bromo(difluoro)methoxy]-3-ethylsulfonyl-2-pyridyl]-3-methyl-6-(trifluoromethyl)imidazo[4,5-c]pyridine]	≥ 80	≥ 80				≥ 80		≥ 80	≥ 80	≥ 80	
	CCS(=O)(=O)c1cc(OC(C)(C)C#N)ccc1-c1nc2cc(C(F)(F)F)ncc2n1C [Compound P103, 2-[3-ethylsulfonyl-4-[3-methyl-6-(trifluoromethyl)imidazo[4,5-c]pyridin-2-yl]phenoxy]-2-methyl-propanenitrile]	≥ 80	≥ 80	≥ 80	≥ 80	≥ 80	≥ 80	≥ 80	≥ 80	≥ 80		
